For assay [1], the target named is T1, human vasopressin V1a receptor (Homo sapiens, UniProt P37288). The assay can be described thus: Human vasopressin V1a receptor binding assay. As to conditions: 1321N1 cell membranes, [3H]vasopressin; read-out: Ki (nM) on hV1a cell line. Put shortly: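 Radioligand competition on membranes from cells expressing human V1a receptor; incubation 60 minutes at 27° C., non-specific binding with 1.2×10^−6 M unlabeled (Arg^8)-vasopressin, filtration separation. Ki by Cheng-Prusoff using Scatchard-derived KD, from at least two independent experiments.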

The target in assay [2] is T1, human vasopressin V1a receptor. The assay can be described thus: Functional assay on human vasopressin V1a receptor expressing cell line (intracellular Ca2+ fluorescence). The assay is classed as cell-based. As to conditions: 1321N1 cells, (Arg8)-vasopressin at EC80; read-out: IC50 (nM) on hV1a cell line.
The target in the next assay is mouse V1a receptor (Mus musculus, UniProt Q62463). The assay can be described thus: Functional V1a in vivo test: inhibition of oxytocin-induced scratching behaviour. As to conditions: mice, 10 mg/kg p.o. pretreatment. On the procedure: Functional V1a In Vivo Test
Male mice (NMRI, ToxiCoop) weighing 18-40 g were used. Animals were kept at least 5 days after delivery, during housing and measurements they were fed and drink ad libitum. The experiments were permitted by the Local Animal Protection Committee and carried out in accordance with the European Animal Protection Directives (EU Directive 2010/63/EU).
Animal behaviour was measured by an automated behavioral analysis system (LABORAS™). The sensors located below platforms detect the mechanical vibration generated by the movement of animal, and transform into an electrical signal (Quinn et al., J Neurosci Methods 2003, 130:83-92). After analyzing signals, the system analyzes the time spent with the following behavioral parameters: locomotion, immobility, climbing, grooming. The grooming algorithm by definition is able to measure the scratching behavioral response. During the experiment, mice were pretreated with the test substance or vehicle, and after the pretreatment period scratching-inducing compound (s.c. 0.3 mg/kg oxytocin) was administered, and then the animals were individually placed into measuring cages. […] To reduce the exploratory activity, the animals were measured after a 1-hour habituation to the cage. The behavioural parameters were compared to the parallel measured parameters of the control animals.
The behavioural inhibitory effect of the substances was calculated with average values of parallel measured vehicle treated groups and presented as the percentage of inhibition: 0% was expressed as average value of scratching behaviour of vehicle pretreated animals (and phys. saline s.c. pretreated with vehicle), while 100% was expressed as average value of scratching of vehicle pretreated animals that received oxytocin subcutaneously. For statistical analysis one-way analysis of variance (ANOVA) with Tukey post hoc test were used.

Chain of mouse V1a receptor (Q62463 whole entry): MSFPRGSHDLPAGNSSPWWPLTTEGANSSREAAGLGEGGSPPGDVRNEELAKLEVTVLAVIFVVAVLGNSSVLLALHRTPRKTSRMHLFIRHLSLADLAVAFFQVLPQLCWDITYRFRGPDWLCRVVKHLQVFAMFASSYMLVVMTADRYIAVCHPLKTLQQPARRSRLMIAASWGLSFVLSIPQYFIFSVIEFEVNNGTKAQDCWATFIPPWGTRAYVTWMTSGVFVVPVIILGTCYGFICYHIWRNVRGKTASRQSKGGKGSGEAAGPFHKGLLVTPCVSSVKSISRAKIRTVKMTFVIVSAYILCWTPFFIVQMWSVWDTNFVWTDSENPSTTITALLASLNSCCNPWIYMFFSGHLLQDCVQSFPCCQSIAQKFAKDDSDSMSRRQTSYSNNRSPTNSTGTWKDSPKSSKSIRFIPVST
T1 sequence (P37288 whole entry): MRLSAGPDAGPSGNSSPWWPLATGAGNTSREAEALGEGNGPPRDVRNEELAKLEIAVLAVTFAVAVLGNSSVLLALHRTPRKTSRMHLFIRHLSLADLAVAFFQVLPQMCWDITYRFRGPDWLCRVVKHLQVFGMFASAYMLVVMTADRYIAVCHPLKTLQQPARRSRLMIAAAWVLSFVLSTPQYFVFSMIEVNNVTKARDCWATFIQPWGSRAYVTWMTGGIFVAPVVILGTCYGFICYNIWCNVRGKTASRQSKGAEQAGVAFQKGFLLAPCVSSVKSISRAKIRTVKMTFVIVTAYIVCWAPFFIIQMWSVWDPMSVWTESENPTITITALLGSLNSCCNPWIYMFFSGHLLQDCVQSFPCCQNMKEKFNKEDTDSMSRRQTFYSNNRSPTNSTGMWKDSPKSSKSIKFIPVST

For the compound `Clc1ccc2c(c1)CC1(Cc3nnc([C@H]4CC[C@H](Oc5ccccn5)CC4)n3-2)OCCCO1` [Example 88, 8′-chloro-1′-[trans-4-(pyridin-2-yloxy)cyclohexyl]-4′H,6′H-spiro[1,3-dioxane-2,5′-[1,2,4]triazolo[4,3-a][1]benzazepine]], the inhibitory constant (Ki) in assay [1] was found to be 0.3 nM. The IC50 in assay [2] is 0.9 nM. For the same compound, the “inhibition (%) of oxytocin-induced scratching behaviour response” value (“inhibition (%)” below) on mouse V1a receptor stood at 79%.
For `CO[C@@H]1Cc2cc(Cl)ccc2-n2c(nnc2[C@H]2CC[C@H](Oc3ccccn3)CC2)C1` (single isomer, unassigned) [Example 104] the same measures were 0.2 nM, 0.6 nM and 67%.
For `CCNC1Cc2cc(Cl)ccc2-n2c(nnc2[C@H]2CC[C@H](Oc3ccccn3)CC2)C1` (stereo partly drawn) [Example 23, 8-chloro-N-ethyl-1-[trans-4-(pyridin-2-yloxy)cyclohexyl]-5,6-dihydro-4H-[1,2,4]triazolo[4,3-a][1]benzazepine-5-amine] the same measures were 1 nM, 6.4 nM and 75%.
Take `CN(C)CCOC1Cc2cc(Cl)ccc2-n2c(nnc2[C@H]2CC[C@H](Oc3ccccn3)CC2)C1` (stereo partly drawn) [Example 60, 2-({8-chloro-1-[trans-4-(pyridin-2-yloxy)cyclohexyl]-5,6-dihydro-4H-[1,2,4]triazolo[4,3-a][1]benzazepin-5-yl}oxy)-N,N-dimethylethanamine]: the inhibition constant Ki in assay [1] came to 2 nM. Besides, the IC50 in assay [2] came to 45 nM. The “inhibition (%)” value on mouse V1a receptor was determined as 40%.
For `FC(F)(F)[C@H]1CC[C@H](c2nnc3n2-c2ccc(Cl)cc2CC2(C3)OCCCO2)CC1` [Example 89, 8′-chloro-1′-[trans-4-(trifluoromethyl)cyclohexyl]-4′H,6′H-spiro[[1,3]dioxane-2,5′-[1,2,4]triazolo[4,3-a][1]benzazepine]] the same measures were 0.4 nM, 1.9 nM and 50%.
For `O[C@H]1Cc2cc(Cl)ccc2-n2c(nnc2[C@H]2CC[C@H](Oc3ccccn3)CC2)C1` [Example 56, (5S)-8-chloro-1-[trans-4-(pyridin-2-yloxy)cyclohexyl]-5,6-dihydro-4H-[1,2,4]triazolo[4,3-a][1]benzazepin-5-ol] the same measures were 0.3 nM, 1.2 nM and 92%.
For `COC1Cc2cc(Cl)ccc2-n2c(nnc2[C@H]2CC[C@H](C(F)(F)F)CC2)C1` (mixture of isomers) [Example 74, 8-chloro-5-methoxy-1-[trans-4-(trifluoromethyl)cyclohexyl]-5,6-dihydro-4H-[1,2,4]triazolo[4,3-a][1]benzazepine] the same measures were 4 nM, 2.6 nM and 30%.
As to `CO[C@]1(C)CC[C@@H](c2nnc3n2-c2ccc(Cl)cc2CC2(C3)OCCO2)CC1` [Example 198, 8′-chloro-1′-(trans-4-methoxy-4-methylcyclohexyl)-4′H,6′H-spiro[1,3-dioxolane-2,5′-[1,2,4]triazolo[4,3-a][1]benzazepine]], the Ki in assay [1] was 0.2 nM. Besides, the IC50 in assay [2] was found to be 0.9 nM. At mouse V1a receptor, the “inhibition (%)” value was 41%.
For `Clc1ccc2c(c1)CC(NC1CCOCC1)Cc1nnc([C@H]3CC[C@H](Oc4ccccn4)CC3)n1-2` (stereo partly drawn) [Example 29, 8-chloro-1-[trans-4-(pyridin-2-yloxy)cyclohexyl]-N-(tetrahydro-2H-pyran-4-yl)-5,6-dihydro-4H-[1,2,4]triazolo[4,3-a][1]benzazepine-5-amine] the same measures were 0.6 nM, 5.4 nM and 89%.
For `COC1Cc2cc(Cl)ccc2-n2c(nnc2[C@H]2CC[C@H](Oc3ccccn3)CC2)C1` (mixture of isomers) [Example 58, 8-chloro-5-methoxy-1-[trans-4-(pyridin-2-yloxy)cyclohexyl]-5,6-dihydro-4H-[1,2,4]triazolo[4,3-a][1]benzazepine] the same measures were 0.3 nM, 1.4 nM and 96%.
For `N#Cc1ccc2c(c1)CC1(Cc3nnc([C@H]4CC[C@H](Oc5ccccn5)CC4)n3-2)OCCO1` [Example 66, 1′-[trans-4-(pyridin-2-yloxy)cyclohexyl]-4′H,6′H-spiro[1,3-dioxolane-2,5′-[1,2,4]triazolo[4,3-a][1]benzazepine]-8′-carbonitrile] the same measures were 0.8 nM, 2.2 nM and 76%.
Regarding `CO[C@]1(C)CC[C@H](c2nnc3n2-c2ccc(Cl)cc2CC2(C3)OCCCO2)CC1` [Example 205, 8′-chloro-1′-(cis-4-methoxy-4-methylcyclohexyl)-4′,6′H-spiro[1,3-dioxane-2,5′-[1,2,4]triazolo[4,3-a][1]benzazepine]], the Ki in assay [1] is 0.2 nM. The half-inhibitory concentration (IC50) in assay [2] was found to be 2.7 nM. Further, the “inhibition (%)” value at mouse V1a receptor came to 66%.
For `Clc1ccc2c(c1)CC1(Cc3nnc(N4CCC(Oc5ccccn5)CC4)n3-2)OCCO1` [Example 157, 8′-chloro-1′-[4-(pyridin-2-yloxy)piperidin-1-yl]-4′H,6′H-spiro[1,3-dioxolane-2,5′-[1,2,4]triazolo[4,3-a][1]benzazepine]] the same measures were 0.1 nM, 0.5 nM and 108%.
For `CO[C@]1(C)CC[C@@H](c2nnc3n2-c2ccc(Cl)cc2CC2(C3)OCCCO2)CC1` [Example 204, 8′-chloro-1′-(trans-4-methoxy-4-methylcyclohexyl)-4′H,6′H-spiro[1,3-dioxane-2,5′-[1,2,4]triazolo[4,3-a][1]benzazepine]] the same measures were 0.2 nM, 2.7 nM and 65%.
For `CO[C@H]1Cc2cc(Cl)ccc2-n2c(nnc2[C@H]2CC[C@H](Oc3ccccn3)CC2)C1` (single isomer, unassigned) [Example 103] the same measures were 0.2 nM, 0.7 nM and 71%.
With `Fc1ccc2c(c1)CC1(Cc3nnc([C@H]4CC[C@H](Oc5ccccn5)CC4)n3-2)OCCO1` [Example 96, 8′-fluoro-1′-[trans-4-(pyridin-2-yloxy)cyclohexyl]-4′H,6′H-spiro[1,3-dioxolane-2,5′-[1,2,4]triazolo[4,3-a][1]benzazepine]], the inhibition constant Ki in assay [1] stood at 0.2 nM. Also, the IC50 in assay [2] was found to be 0.8 nM. Moreover, the “inhibition (%)” value at mouse V1a receptor was found to be 49%.
For `CN[C@@H]1Cc2cc(Cl)ccc2-n2c(nnc2[C@H]2CC[C@H](Oc3ccccn3)CC2)C1` [Example 100, (5R)-8-chloro-N-methyl-1-[trans-4-(pyridin-2-yloxy)cyclohexyl]-5,6-dihydro-4H-[1,2,4]triazolo[4,3-a][1]benzazepin-5-amine] the same measures were 0.2 nM, 1.5 nM and 96%.
For `NCC(=O)N[C@@H]1Cc2cc(Cl)ccc2-n2c(nnc2[C@H]2CC[C@H](Oc3ccccn3)CC2)C1` [Example 12, N-{(5R)-8-chloro-1-[trans-4-(pyridin-2-yloxy)cyclohexyl]-5,6-dihydro-4H-[1,2,4]triazolo[4,3-a][1]benzazepin-5-yl}glycinamide] the same measures were 0.8 nM, 9 nM and 34%.
As to `FC(F)(F)c1ccc2c(c1)CC(OCC1CC1)Cc1nnc([C@H]3CC[C@H](Oc4ccccn4)CC3)n1-2` (stereo partly drawn) [Example 51, 5-(cyclopropylmethoxy)-1-[trans-4-(pyridin-2-yloxy)cyclohexyl]-8-(trifluoromethyl)-5,6-dihydro-4H-[1,2,4]triazolo[4,3-a][1]benzazepine], the Ki in assay [1] stood at 7.6 nM. Besides, the IC50 in assay [2] turned out to be 55 nM.
For `CC[C@]1(OC)CC[C@H](c2nnc3n2-c2ccc(Cl)cc2CC(N(C)C)C3)CC1` (stereo partly drawn) [Example 233, 8-chloro-1-(trans-4-ethyl-4-methoxycyclohexyl)-N,N-dimethyl-5,6-dihydro-4H-[1,2,4]triazolo[4,3-a][1]benzazepin-5-amine] the same measures were 6.9 nM and 53 nM.

In general, Ki refers to a measure of affinity in units of concentration, obtained from inhibition or displacement. For orientation: IC50 means the concentration at which inhibition is half-maximal.
